# Experimental data reported in patent publication US20220193025A1, “USE OF DIANHYDROHEXITOL TO ELIMINATE THE COSMETIC EFFECTS OF ACNE, DANDRUFF AND BAD ODORS” (ROQUETTE FRERES, priority 2019, published 2022).
# How the values were obtained:
# [1] = system: Aspergillus brasiliensis; conditions: U.S. Pat. No. 9,295,626, table 2; cited from earlier work
# [2] = system: Candida albicans; conditions: U.S. Pat. No. 9,295,626, table 2; cited from earlier work
# [3] = system: Malassezia furfur strain; test: Example 2: microbial population count over 28 days after contamination (microtiter method, TTC); format: cell-based; conditions: for Number of colony forming strains after: 24 h / Number of colony forming strains after: 7 days / Number of colony forming strains after: 14 days / Number of colony forming strains after: 21 days / Number of colony forming strains after: 28 days: 22° C.
# Description: (§1) The samples are prepared under sterile conditions and deposited in microplates (2-ml wells) with the concentrations hereunder. Two analysis controls were produced: a positive control corresponding to 0.5% Phenonip®; a negative control consisting of 0.85% physiological saline solution. Samples and controls are contaminated by a Malassezia furfur fungal strain with around 1.50×10^4 to 3.80×10^4 colony forming units per milliliter, denoted cfu/ml. After contamination, the samples are carefully mixed by suction-discharge cycles in order to ensure a uniform distribution of the microorganism. The whole is incubated at 22° C. during 28 days. The microbial population is sampled and counted at 24 hours, 7, 14, 21 and 28 days for the bacterial strain. The contaminated samples are collected and then deposited in serial dilutions in microtiter plates, in the presence of culture medium, which is a saline solution with 0.85% sodium chloride, and a dehydrogenase activity indicator reagent, which is 2,3,5-triphenyltetrazolium chloride (denoted TTC). The results are presented in the following pages with the variation of the microbial population over the 28 days of study, for the tested microbial strain. The measurements of microbial populations in the samples collected at each time, are carried out according to the following microtiter method, for one sample collection. In the 96 wells with a volume of 250 μL of a microtiter plate, 20 μL of the collected sample are diluted by a factor of 10 by dispersion in 180 μL of Letheen broth (Difco, ref. 268110) containing 1.5% of Tween 80 (Sigma, ref. […]) and TTC (Sigma, ref. […]). The microplate is incubated for 48 hours at 32.5° C., and the growth of the microorganisms is monitored by the color change, from colorless to red/pink. The highest reciprocal dilution indicating a growth makes it possible to determine the log number of each microorganism at each time. The measurements of microbial populations taken at each collection time are expressed as colony forming units/ml.
# [4] = system: Propionobacterium acnes strain; test: Example 1: microbial population count over 28 days after contamination (microtiter method, TTC); format: cell-based; conditions: for Number of colony forming strains after: 24 h / Number of colony forming strains after: 7 days / Number of colony forming strains after: 14 days / Number of colony forming strains after: 21 days / Number of colony forming strains after: 28 days: 22° C.
# Description: as §1, with “by a Propionobacterium acnes bacterial strain with” for “by a Malassezia furfur fungal strain with”, “with around 1.43×10^5 to 4.15×10^5” for “with around 1.50×10^4 to 3.80×10^4”, “1.43×10^5 to 4.15×10^5 colony forming” for “1.50×10^4 to 3.80×10^4 colony forming”, “for the Propionobacterium acnes bacterial strain.” for “for the bacterial strain.”
# [5] = system: Staphylococcus aureus; conditions: U.S. Pat. No. 9,295,626, table 2; cited from earlier work
structure (smiles),measurement,setting,value
"O[C@@H]1CO[C@H]2[C@@H]1OC[C@@H]2O [isosorbide, 1,4-3,6-dianhydrosorbitol]",minimum inhibitory concentration,[1],10%
same,minimum inhibitory concentration,[2],10%
same,effect on the strain (conclusion in words),[3],bactericide
same,colony forming strain observed,[3]; after 24 hours,no colony forming strain is observed
same,Number of colony forming strains after: 24 h,[3]; dose of isosorbide 1%,0 colony forming units/ml
same,Number of colony forming strains after: 7 days,[3]; dose of isosorbide 1%,0 colony forming units/ml
same,Number of colony forming strains after: 14 days,[3]; dose of isosorbide 1%,0 colony forming units/ml
same,Number of colony forming strains after: 21 days,[3]; dose of isosorbide 1%,0 colony forming units/ml
same,Number of colony forming strains after: 28 days,[3]; dose of isosorbide 1%,0 colony forming units/ml
same,Number of colony forming strains after: 24 h,[3]; dose of isosorbide 5%,0 colony forming units/ml
same,Number of colony forming strains after: 7 days,[3]; dose of isosorbide 5%,0 colony forming units/ml
same,Number of colony forming strains after: 14 days,[3]; dose of isosorbide 5%,0 colony forming units/ml
same,Number of colony forming strains after: 21 days,[3]; dose of isosorbide 5%,0 colony forming units/ml
same,Number of colony forming strains after: 28 days,[3]; dose of isosorbide 5%,0 colony forming units/ml
same,Number of colony forming strains after: 24 h,[3]; dose of isosorbide 9%,0 colony forming units/ml
same,Number of colony forming strains after: 7 days,[3]; dose of isosorbide 9%,0 colony forming units/ml
same,Number of colony forming strains after: 14 days,[3]; dose of isosorbide 9%,0 colony forming units/ml
same,Number of colony forming strains after: 21 days,[3]; dose of isosorbide 9%,0 colony forming units/ml
same,Number of colony forming strains after: 28 days,[3]; dose of isosorbide 9%,0 colony forming units/ml
same,bactericidal effect (conclusion in words),[4]; Example 1,bactericide
same,colony forming strain observed,"[4]; after 24 hours, Example 1",no colony forming strain is observed
same,Number of colony forming strains after: 24 h,[4]; dose 1%,0 colony forming units/ml
same,Number of colony forming strains after: 7 days,[4]; dose 1%,0 colony forming units/ml
same,Number of colony forming strains after: 14 days,[4]; dose 1%,0 colony forming units/ml
same,Number of colony forming strains after: 21 days,[4]; dose 1%,0 colony forming units/ml
same,Number of colony forming strains after: 28 days,[4]; dose 1%,0 colony forming units/ml
same,Number of colony forming strains after: 24 h,[4]; dose 5%,0 colony forming units/ml
same,Number of colony forming strains after: 7 days,[4]; dose 5%,0 colony forming units/ml
same,Number of colony forming strains after: 14 days,[4]; dose 5%,0 colony forming units/ml
same,Number of colony forming strains after: 21 days,[4]; dose 5%,0 colony forming units/ml
same,Number of colony forming strains after: 28 days,[4]; dose 5%,0 colony forming units/ml
same,Number of colony forming strains after: 24 h,[4]; dose 9%,0 colony forming units/ml
same,Number of colony forming strains after: 7 days,[4]; dose 9%,0 colony forming units/ml
same,Number of colony forming strains after: 14 days,[4]; dose 9%,0 colony forming units/ml
same,Number of colony forming strains after: 21 days,[4]; dose 9%,0 colony forming units/ml
same,Number of colony forming strains after: 28 days,[4]; dose 9%,0 colony forming units/ml
same,minimum inhibitory concentration,[5],10%
